Test results published in EPA's ToxValDB 9.5.

Tests used:
Rattus norvegicus [1] = settings: oral
Rattus norvegicus [2] = settings: oral; for LD50: acute; for NOAEL (% diet): short-term, duration: 29 days
[3] = reproduction developmental, duration: 10 days, gavage, F, Sprague-Dawley
[4] = subchronic, duration: 13 weeks, diet
[5] = subchronic, gavage, M, Sprague-Dawley, Clinical Observation: Salivation Locomotor activity decrease, BradypneaIncomplete eyelid opening + Body Weight Changes: decrease + Blood …
[6] = subchronic, gavage, M, Sprague-Dawley, Body Weight Changes: Body weight gain decrease + Food Consumption: Food consumption decrease + Blood Chemistry: ALP decrease, TG decrease, …
[7] = reproduction developmental, duration: 32 days, gavage, Sprague-Dawley, generation: F0
[8] = short-term, duration: 28 days, gavage, F, Sprague-Dawley, Clinical Observation: Locomotor activity decrease, Crouching position + Functional Observational Battery: Reactivity decrease + Body Weight …
[9] = short-term, duration: 28 days, gavage, M, Sprague-Dawley, Clinical Observation: Locomotor activity decrease, Crouching position + Functional Observational Battery: Reactivity decrease + Body Weight …

SMILES: O=C(O)C1CCC(c2ccc(Cl)cc2)CC1 (centres undefined)
- NOEL (Rattus norvegicus [1]; short-term, duration: 28 days, gavage, M/F, Deaths + Clinical Observation: Abnormal gait Lethargy Piloerection Ptosis + Blood Chemistry: GPT increase, ALP increase, TP increase, ALB …): < 12 mg/kg-day

SMILES: O=C1Oc2cc3c(cc2=C1c1ccccc1)OC(=O)C=3c1ccc(OCC2CCCO2)cc1 (centres undefined)
- NOEL (Rattus norvegicus [1]; short-term, duration: 28 days, gavage): 1000 mg/kg-day

SMILES: CC(C)(C)c1cc(N=C(NO)c2ccc([N+](=O)[O-])cc2)n[nH]1
- NOEL (Rattus norvegicus [1]; short-term, duration: 28 days, gavage, M/F, Body Weight Changes: Weight gain decrease + Hematology: RET increase, RBC decrease, HGB decrease, WBC increase, MCV increase, MCH increase, …): < 4 mg/kg-day

SMILES: CC(C)CCCCCOC(=O)CCc1cc(C(C)(C)C)c(O)c(C(C)(C)C)c1
- NOEL (Rattus norvegicus [1]; short-term, duration: 28 days, gavage, M/F, Hematology: APTT increase + Organ Weight: Liver increase + Histopathology: Liver - Hypertrophy, centrilobular, hepatocyte Thyroid - …): < 5 mg/kg-day

SMILES: CC(=O)CC(=O)Nc1ccc(-c2ccc(NC(=O)CC(C)=O)c(C)c2)cc1C
- NOEL (Rattus norvegicus [1]; short-term, duration: 28 days, gavage, M/F, Crl:CD(SD), Body Weight Changes: decrease + Food Consumption: decrease + Water Consumption: decrease + Urinalysis: Volume decrease + Blood Chemistry: …): 8 mg/kg-day

SMILES: Cc1cc(S(=O)(=O)[O-])c(N=Nc2c([O-])c(C(=O)O)cc3ccccc23)cc1Cl.[Ba+2]
- LD50 (Rattus norvegicus [2]; gavage): ≥ 5000 mg/kg

SMILES: CC1COCc2cc3c(cc21)C(C)(C)C(C)C3(C)C (centres undefined)
- LOAEL (Rattus norvegicus [2]; [3]): 150 mg/kg-day
- NOAEL (Rattus norvegicus [2]; [3]): 50 mg/kg-day
- NOAEL (Rattus norvegicus [2]; reproduction developmental, duration: 10 days, gavage, Sprague-Dawley, generation: F1): 150 mg/kg-day
- NOAEL (Rattus norvegicus [2]; reproduction developmental, gavage): 20 mg/kg-day
- LOAEL (Rattus norvegicus [2]; [4]): 300 mg/kg-day
- NOAEL (Rattus norvegicus [2]; [4]): 150 mg/kg-day

SMILES: CCCCCCCCCCCCc1ccc(S(=O)(=O)[O-])cc1.COc1ccc(C[N+](C)(C)c2ccccc2)cc1
- NOEL (Rattus norvegicus [1]; short-term, duration: 28 days, gavage, M/F, Clinical Observation: Salivation + Urinalysis: Occult blood + Blood Chemistry: GPT increase, T-CHO increase, K increase, GOT increase, TG …): 25 mg/kg-day

SMILES: CCCCCCC[CH2][Sn]([S]CC(=O)OCCCCCC(C)C)([S]CC(=O)OCCCCCC(C)C)[S]CC(=O)OCCCCCC(C)C
- NOAEL (Rattus norvegicus [1]; subchronic, duration: 13 weeks, diet, M, CIVO, Wistar-derived, Relative Organ Weight: Kidney increase, Liver decrease + Histopathology: Kidney-Increased granularity, tubular epithelial cells): 28.8 mg/kg-day
- NOAEL (Rattus norvegicus [1]; subchronic, duration: 13 weeks, drinking water, M/F, CIVO, Wistar-derived, Urinalysis: Epithelial cell increase, Crystals increase + Hematology: HGB decrease + Blood Chemistry: BUN increase + Relative Organ Weight: …): < 45.6 mg/kg-day

SMILES: CCCCn1c(O)c(C#N)c(C)c(N=Nc2ccc([N+](=O)[O-])cc2Cl)c1=O
- NOEL (Rattus norvegicus [1]; short-term, duration: 28 days, gavage, M/F, Blood Chemistry: GOT increase, T-bil increase + Organ Weight: Liver increase): 250 mg/kg-day

SMILES: CCn1cc(C(=O)[O-])c(=O)c2cc3occc3nc21.[Na+]
- NOEL (Rattus norvegicus [1]; chronic, duration: 26 weeks, gavage, M/F, Clinical Observation: Salivation + Body Weight Changes: Gain decrease + Hematology: WBC decrease + Blood Chemistry: A/G increase + Organ …): 10 mg/kg-day

SMILES: COc1cc(N=Nc2ccc3cc(S(=O)(=O)[O-])c(N=Nc4cc(OC)c(N=Nc5ccc(N)cc5S(=O)(=O)[O-])cc4OC)c(O)c3c2)c(OC)cc1N.[Na+].[Na+]
- NOEL (Rattus norvegicus [1]; short-term, duration: 28 days, gavage, M/F, Body Weight Changes: Body weight gain decrease + Food Consumption: decrease + Hematology: GOT increase, GPT increase, TG decrease + Organ …): 2 mg/kg-day

SMILES: COc1cc(S(=O)(=O)CCOS(=O)(=O)O)c(OC)cc1N
- NOEL (Rattus norvegicus [1]; short-term, duration: 28 days, gavage, F, Blood Chemistry: Na increase + Relative Organ Weight: Liver increase, Kidney increase): 30 mg/kg-day

SMILES: COCc1ccc(COC)cc1 [1,4-Bis(methoxymethyl)benzene]
- NOAEL (Rattus norvegicus [1]; [5]): 50 mg/kg-day
- NOEL (Rattus norvegicus [1]; [5]): 50 mg/kg-day

SMILES: O=C(O)C1CCC(C(=O)O)CC1 (centres undefined) [1,4-Cyclohexanedicarboxylic acid]
- LD50 (Rattus norvegicus [2]; gavage, Sprague-Dawley): 2080 mg/kg
- NOAEL (% diet) (Rattus norvegicus [2]; diet, F, Sprague-Dawley): 1
- NOAEL (% diet) (Rattus norvegicus [2]; diet, M, Sprague-Dawley): 1
- NOAEL (Rattus norvegicus [2]; subchronic, duration: 90 days, gavage, F, Wistar): 300 mg/kg-day
- NOAEL (Rattus norvegicus [2]; subchronic, duration: 90 days, gavage, M, Wistar): 300 mg/kg-day

SMILES: C1CN2CCN1CC2 [1,4-Diazabicyclo[2.2.2]octane]
- NOAEL (Rattus norvegicus [1]; short-term, duration: 29 days, gavage, M, Sprague-Dawley, Body Weight Changes: Weight gain decrease + Food Consumption: decrease + Histopathology: Kidney: Inflammation, chronic Kidney: Proliferation): 100 mg/kg-day

SMILES: C1=CCCC=CCCC=CCC1 [1,5,9-Cyclododecatriene]
- NOEL (Rattus norvegicus [1]; subchronic, duration: 42 days, gavage, M, CD(SD), Clinical Observation: Salivation + Body Weight Changes: Weight gain decrease + Hematology: PT increase, APTT increase, Fibrinogen increase…): 12 mg/kg-day
- NOAEL (Rattus norvegicus [1]; subchronic, duration: 55 days, gavage, M, Sprague-Dawley, Body Weight Changes: Weight gain decrease + Food Consumption: increase + Urinalysis: Vol increase + Blood Chemistry: TG decrease + Absolute …): 30 mg/kg-day

SMILES: O=S(=O)([O-])c1cccc2c(S(=O)(=O)[O-])cccc12.[Na+].[Na+] [1,5-Naphthalenedisulfonic acid, disodium salt]
- NOEL (Rattus norvegicus [1]; subchronic, gavage, M, Sprague-Dawley, Clinical Observation: Soft stool Diarrhea + Necropsy: Stomach/Forestomach-Elevation of limiting ridge Cecum-Enlargement + Histopathology: …): 40 mg/kg-day

SMILES: C(CCCOCC1CO1)CCOCC1CO1 (centres undefined) [1,6-Hexanediol diglycidyl ether]
- NOAEL (Rattus norvegicus [1]; [6]): 30 mg/kg-day
- NOEL (Rattus norvegicus [1]; [6]): 30 mg/kg-day

SMILES: ClCCc1ccccc1 [1-Chloro-2-phenylethane]
- NOEL (Rattus norvegicus [1]; short-term, duration: 28 days, gavage, M/F, Sprague-Dawley, Food Consumption: decrease + Urinalysis: Volume increase, Prot decrease + Hematology: RBC increase, MCV decrease, MCH decrease + Absolute …): 60 mg/kg-day

SMILES: Clc1ccc(OCOCC#CI)cc1 [1-Chloro-4-(((3-iodo-2-propynyl)oxy)methoxy)benzene]
- NOEL (Rattus norvegicus [1]; subchronic, gavage, M, Sprague-Dawley, Clinical Observation: Salivation Loose stool + Body Weight Changes: decreaseor decrease(trend) + Food Consumption: decrease + Hematology: …): 8 mg/kg-day

SMILES: O=C1c2ccccc2C(=O)c2c(Cl)cccc21 [1-Chloroanthraquinone]
- NOEL (Rattus norvegicus [1]; short-term, duration: 28 days, gavage, M/F, Sprague-Dawley, Clinical Observation: Brown urine + Functional Observational Battery: Landing foot splay decrease, Locomotor activity decrease + Food …): < 4 mg/kg-day

SMILES: CCCCCCCCCCCCCl [1-Chlorododecane]
- LD50 (Rattus norvegicus [2]; gavage, Sprague-Dawley): > 2000 mg/kg
- LOAEL (Rattus norvegicus [2]; [7]): 300 mg/kg-day
- NOAEL (Rattus norvegicus [2]; [7]): 100 mg/kg-day
- LOAEL (Rattus norvegicus [2]; reproduction developmental, duration: 32 days, gavage, Sprague-Dawley, generation: F1): 1000 mg/kg-day

SMILES: Clc1cccc2ccccc12 [1-Chloronaphthalene]
- LOEL (Rattus norvegicus [1]; [8]): 100 mg/kg-day
- NOEL (Rattus norvegicus [1]; [8]): 30 mg/kg-day
- LOEL (Rattus norvegicus [1]; [9]): 100 mg/kg-day
- NOEL (Rattus norvegicus [1]; [9]): 30 mg/kg-day

SMILES: CN1CCNCC1 [1-Methylpiperazine]
- NOEL (Rattus norvegicus [1]; subchronic, gavage, M, Sprague-Dawley, Body Weight Changes: Gain decrease(trend)Gain rate decrease + Hematology: WBC decrease(trend)RET decrease, Eosinophil ratio decrease + Blood…): 80 mg/kg-day
